Experimental data as given in US7166299B2, “Preparation of aqueous clear solution dosage forms with bile acids” (priority 1998, dated 2007).
Values after ≈ are worked out from the molar mass of the structure shown. Values joined by “and” are separate entries in the source; they are usually repeats but may differ in a detail not shown here. Identical values can stand only once.

Columns and labels:
[1] = Solution stability test (HPLC) of single bile acid with maltodextrin in aqueous solution, Example I; assay type: physicochemical
Experimental: (§1) The stability of dosage formulations of the invention were evaluated by measuring the concentration of the relevant bile acid over time in preparations comprising soluble bile acid, a high molecular weight aqueous soluble starch conversion product, and water at various pH and temperature levels. The retention time of each bile acid may be adjusted as needed to permit individual analysis each bile acid present in a complex samples, i.e. a sample having a plurality of bile acids.
(§2) The stability tests were conducted on three different aqueous solution systems: […].
(§3) The stability tests were performed with HPLC and microscope light at various pH conditions under the normal and accelerated conditions. Accelerated conditions for testing pharmaceutical compositions have been described (Remington, The Science and Practice of Pharmacy, 19th ed., p. 640). […] Thus, the formulations of the examples are suitable for preparing a commercial liquid dosage form. […] Some formulations remain stable for over 2 years.
(§4) For the solution stability test for each bile acid, HPLC was used to measure the concentration of the relevant soluble bile acid under the following conditions: the elution solvent of 0.02 M KH2PO4:acetonitrile in a ratio of 55:45, with a pH of 3.01, the flow rate was 0.8 mL/min., the injection volume was 20 μL, wave length for detection was 195 nm. In the tables, the concentration of the indicated bile acid salt for each of the three numbered trials and the average thereof is reported on each line. The percentage indicates the relative concentration of the bile acid salt after incubation for a certain amount of time in comparison with the initial concentration.
100 mL of the aqueous solution in which one of the above bile acids is dissolved was prepared. Into the resulting clear solution, maltodextrin, a high molecular weight aqueous soluble starch conversion product, was added with agitation at room temperature. Purified water was added to adjust the total volume to be 100 mL. According to the instant invention and all examples, purified water is deionized, distilled deionized-distilled water, or a grade commonly used for pharmaceutical preparations.

[2] = Solution stability test (HPLC) of mixed bile acids with maltodextrin in aqueous solution, Example II; assay type: physicochemical; details: Table 2: pH 1, 50° C.
Experimental: as §1, §2, §3, §4
Into the resulting clear solution, maltodextrin was added with agitating at room temperature. Purified water was added to adjust the total volume to be 100 mL.

[3] = cited from earlier work
[4] = Hematic levels of UDCA and glyco UDCA after oral administration of 200 mg UDCA aqueous solution to three healthy men (Example VI); assay type: in vivo, human; details: male, human, in vivo, po, 200 mg
Experimental: The aqueous solution dosage forms, according to this invention, containing 200 mg of ursodeoxycholic acid (UDCA), were prepared according to the method described in the above-described Example III and were administered to three healthy men having normal body weight after fasting. The hematic levels of UDCA and glyco UDCA were evaluated by means of well known chemical methods. After applying buffered serum to sep-pak column, methanol eluate was derivatized with phenacyl bromide at 80° C. for 45 minutes. These phenacyl bromide derivatives were dissolved in acetonitrile in preparation for HPLC. The experimental results of the absorption measured at certain times after dosage administration include the total absorption expressed as the area under the serum concentration-time curve (AUC: μg/mL×hours), the maximum hematic concentration (Cmax; μg/mL) that has been obtained, and the time (Tmax; hour) in which said maximum concentration has been obtained.
The experimental pharmacokinetic tests of the aqueous solution dosage forms according to this invention carried out on men show substantial improvement in AUC, Cmax and Tmax in comparison with the best results from any dosage forms known presently.
Table 4A and Table 4B show plasma concentration of UDCA and GUDCA measured in 3 men over time following on oral administration of the UDCA and GUDCA containing formulations according to Example VI and comparison of results against results of others employing different pharmaceutical formulations of UDCA.

C[C@H](CCC(=O)O)[C@H]1CC[C@H]2[C@@H]3[C@H](O)C[C@@H]4C[C@H](O)CC[C@]4(C)[C@H]3C[C@H](O)[C@]12C [CA, cholic acid (3α, 7α, 12α-trihydroxy-5β-cholanic acid)]
Percentage of day 0 concentration ([1]; Table 1A: pH 7, 50° C., day 0): 100.0% | Percentage of day 0 concentration ([1]; Table 1A: pH 7, 50° C., day 4): 95.4% | Percentage of day 0 concentration ([1]; Table 1A: pH 7, 50° C., day 7): 100.8% | Percentage of day 0 concentration ([1]; Table 1A: pH 7, 50° C., day 20): 103.0% | Percentage of day 0 concentration ([1]; Table 1B: pH 10, 50° C., day 0): 100.0% | Percentage of day 0 concentration ([1]; Table 1B: pH 10, 50° C., day 4): 99.1% | Percentage of day 0 concentration ([1]; Table 1B: pH 10, 50° C., day 7): 103.6% | Percentage of day 0 concentration ([1]; Table 1B: pH 10, 50° C., day 20): 106.4% | Percentage of day 0 concentration ([2]; day 0): 100.0% | Percentage of day 0 concentration ([2]; day 4): 89.8% | concentration by HPLC, Average ([2]; day 4): 0.457 | concentration by HPLC, trials #1-#3 ([2]; day 4): 0.453 and 0.466 | Percentage of day 0 concentration ([2]; day 7): 86.9% | concentration by HPLC, Average ([2]; day 7): 0.443 | concentration by HPLC, trials #1-#3 ([2]; day 7): 0.434 and 0.426 and 0.468 | Percentage of day 0 concentration ([2]; day 20): 40.6% | concentration by HPLC, Average ([2]; day 20): 0.207 | concentration by HPLC, trials #1-#3 ([2]; day 20): 0.207 and 0.206

C[C@H](CCC(=O)O)[C@H]1CC[C@H]2[C@@H]3CC[C@@H]4C[C@H](O)CC[C@]4(C)[C@H]3C[C@H](O)[C@]12C [DCA, deoxycholic acid (3α, 12α-dihydroxy-5β-cholanic acid)]
solubility in the gastric juices and in aqueous hydrochloric acid solution [3]: especially insoluble | solubility ([3]; water): 240 µg/mL (≈ 611 µM)

C[C@H](CCC(=O)NCC(=O)O)[C@H]1CC[C@H]2[C@@H]3[C@@H](O)C[C@@H]4C[C@H](O)CC[C@]4(C)[C@H]3CC[C@]12C [GUDCA, glycoursodeoxycholic acid]
AUC ([4]; AUC, mean): 4380 ± 1170 ng·h/mL | Cmax ([4]; individual men #1-#3): 1920 ng/mL | Cmax ([4]; mean): 1600 ng/mL | Tmax ([4]; Tmax, mean): 3.5 ± 1.5 h

C[C@H](CCC(=O)NCCS(=O)(=O)O)[C@H]1CC[C@H]2[C@@H]3[C@@H](O)C[C@@H]4C[C@H](O)CC[C@]4(C)[C@H]3CC[C@]12C [Tauroursodeoxycholic acid]
solubility in hydrochloric acid solution [3]: insoluble | solubility in the gastric juices and in aqueous hydrochloric acid solution [3]: especially insoluble

C[C@H](CCC(=O)O)[C@H]1CC[C@H]2[C@@H]3C[C@H](O)[C@@H]4C[C@H](O)CC[C@]4(C)[C@H]3CC[C@]12C [hyodeoxycholic acid]
solubility in the gastric juices and in aqueous hydrochloric acid solution [3]: especially insoluble

C[C@H](CCC(=O)NCCS(=O)(=O)O)[C@H]1CC[C@H]2[C@@H]3[C@H](O)C[C@@H]4C[C@H](O)CC[C@]4(C)[C@H]3CC[C@]12C [taurochenodeoxycholic acid]
solubility in hydrochloric acid solution [3]: insoluble | solubility in the gastric juices and in aqueous hydrochloric acid solution [3]: especially insoluble
